According to the NIST ThermoML archive (doi:10.1021/acs.jced.6b00273):
Numbers after ± are expanded uncertainties.

Assay: mn = molality of the nth substance listed, in mol/kg
Settings: 101.33 kPa, Liquid; for viscosity: Capillary tube (Ostwald / Ubbelohde) method; for mass density: Vibrating tube method

Cn1c(=O)c2c(ncn2C)n(C)c1=O [caffeine] + O
Settings	mass density, 288.15 K [kg/m3]	mass density, 298.15 K [kg/m3]	mass density, 308.15 K [kg/m3]	mass density, 318.15 K [kg/m3]	viscosity, 288.15 K [mPa·s]	viscosity, 298.15 K [mPa·s]	viscosity, 308.15 K [mPa·s]	viscosity, 318.15 K [mPa·s]
m1 = 0.00508	–	–	–	–	1.14 ± 0.025	0.895 ± 0.025	0.723 ± 0.024	0.599 ± 0.024
m1 = 0.0051	999.404 ± 8	997.304 ± 8	994.303 ± 8	990.464 ± 8	–	–	–	–
m1 = 0.00693	–	–	–	–	1.142 ± 0.025	0.896 ± 0.025	0.724 ± 0.024	0.6 ± 0.024
m1 = 0.00695	999.505 ± 8	997.399 ± 8	994.39 ± 8	990.545 ± 8	–	–	–	–
m1 = 0.009	–	–	–	–	1.144 ± 0.025	0.896 ± 0.025	0.724 ± 0.024	0.601 ± 0.024
m1 = 0.00902	999.619 ± 8	997.504 ± 8	994.488 ± 8	990.637 ± 8	–	–	–	–
m1 = 0.01986	–	–	–	–	1.147 ± 0.025	0.9 ± 0.025	0.728 ± 0.024	0.606 ± 0.024
m1 = 0.01993	1000.22 ± 8	998.06 ± 8	995.013 ± 8	991.121 ± 8	–	–	–	–
m1 = 0.02978	–	–	–	–	1.152 ± 0.025	0.905 ± 0.025	0.732 ± 0.024	0.609 ± 0.024
m1 = 0.02992	1000.77 ± 8	998.576 ± 8	995.497 ± 8	991.571 ± 8	–	–	–	–
m1 = 0.03531	1001.07 ± 8	998.853 ± 8	995.759 ± 8	991.812 ± 8	–	–	–	–
m1 = 0.03533	–	–	–	–	1.154 ± 0.025	0.907 ± 0.025	0.735 ± 0.024	0.611 ± 0.024
m1 = 0.03983	–	–	–	–	1.156 ± 0.025	0.91 ± 0.025	0.737 ± 0.024	0.613 ± 0.024
m1 = 0.04008	1001.34 ± 8	999.101 ± 8	996.001 ± 8	992.025 ± 8	–	–	–	–
m1 = 0.04953	–	–	–	–	1.162 ± 0.025	0.914 ± 0.025	0.741 ± 0.024	0.617 ± 0.024
m1 = 0.04992	1001.89 ± 8	999.619 ± 8	996.484 ± 8	992.483 ± 8	–	–	–	–

Cn1cnc2c1c(=O)[nH]c(=O)n2C [1H-purine-2,6-dione, 3,7-dihydro-3,7-dimethyl-] + O
Settings	mass density, 288.15 K [kg/m3]	mass density, 298.15 K [kg/m3]	mass density, 308.15 K [kg/m3]	mass density, 318.15 K [kg/m3]	viscosity, 288.15 K [mPa·s]	viscosity, 298.15 K [mPa·s]	viscosity, 308.15 K [mPa·s]	viscosity, 318.15 K [mPa·s]
m1 = 0.00051	999.157 ± 8	997.073 ± 8	994.088 ± 8	990.268 ± 8	1.138 ± 0.025	0.891 ± 0.026	0.72 ± 0.025	0.597 ± 0.024
m1 = 0.0007	999.167 ± 8	997.083 ± 8	994.097 ± 8	990.277 ± 8	1.139 ± 0.025	0.891 ± 0.025	0.72 ± 0.024	0.597 ± 0.024
m1 = 0.0009	999.177 ± 8	997.093 ± 8	994.107 ± 8	990.287 ± 8	1.139 ± 0.025	0.891 ± 0.025	0.72 ± 0.024	0.597 ± 0.024
m1 = 0.00098	999.182 ± 8	997.097 ± 8	994.111 ± 8	990.291 ± 8	1.139 ± 0.025	0.891 ± 0.025	0.72 ± 0.024	0.597 ± 0.024
m1 = 0.00123	999.195 ± 8	997.11 ± 8	994.123 ± 8	990.303 ± 8	1.139 ± 0.025	0.891 ± 0.025	0.72 ± 0.024	0.597 ± 0.024
m1 = 0.00147	–	–	–	–	1.139 ± 0.025	0.891 ± 0.025	0.72 ± 0.024	0.597 ± 0.024
m1 = 0.00148	999.209 ± 8	997.123 ± 8	994.135 ± 8	990.314 ± 8	–	–	–	–
m1 = 0.00182	–	–	–	–	1.139 ± 0.025	0.891 ± 0.025	0.72 ± 0.024	0.597 ± 0.024
m1 = 0.00183	999.228 ± 8	997.141 ± 8	994.152 ± 8	990.331 ± 8	–	–	–	–
m1 = 0.00212	–	–	–	–	1.139 ± 0.025	0.891 ± 0.025	0.72 ± 0.025	0.597 ± 0.024
m1 = 0.00213	999.244 ± 8	997.156 ± 8	994.167 ± 8	990.346 ± 8	–	–	–	–
